Experimental data from paper PMC6992764 (Nature Communications, 2020).

Tests used:
p53-MDM2 interaction = p53-MDM2 interaction (Homo sapiens, UniProt Q00987); assay: HTRF p53-MDM2 interaction counter assay; assay type: binding
B16 tumor cells = assay: B16 tumor cell growth (WST-1 assay); assay type: cell-based; details: B16, 48 h
C603S FROUNT = target: T1, C603S FROUNT (Homo sapiens, UniProt Q9BW27, C603S/L538E/P612S); assay: NMR titration of C603S FROUNT mutant; assay type: binding; details: 50 µM DSF, 50 µM mutant
T1 construct: 50 µM CRBD of FROUNT (a.a. 532–656) bearing the L538E/P612S mutations or its mutant (C603S); made in house
T1 sequence (Q9BW27 532-656 L538E/C603S/P612S): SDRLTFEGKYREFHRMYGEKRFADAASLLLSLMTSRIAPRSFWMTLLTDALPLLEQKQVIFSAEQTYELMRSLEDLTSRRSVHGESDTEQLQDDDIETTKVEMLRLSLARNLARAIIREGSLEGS
Experimental: All ^1H–^15N heteronuclear single quantum correlation (HSQC) NMR spectra were measured at 25 °C on a Bruker 600-MHz AVANCE III spectrometer with a cryogenic probe. […] The assignments of the backbone ^1H^N and ^15N NMR signals of CRBD were performed, based on the previous paper. […] Combined chemical shift differences Δδ was calculated by Δδ = [(ΔδHN)^2 + (ΔδN/6.5)^2]^1/2, where ΔδHN and ΔδN are the chemical shift differences for ^1H^N and ^15N, respectively.

[1] = tested on: Lewis lung carcinoma (LLC); assay: LLC subcutaneous tumor-growth model; assay type: in vivo, mice
Experimental: For evaluating subcutaneous tumor growth, LLC or B16 cells (5 × 10^5) in 50 μl PBS were inoculated subcutaneously into the right flanks of mice. Mice were euthanized when their tumor volumes reached 4000 mm^3. Tumor sizes were measured twice a week using calipers. Tumor volume was calculated using the following formula: Volume = (width)^2 × length/2. For the lung metastasis model, 1 × 10^6 LLC or B16 cells in 200 μl PBS were injected intravenously into mice. Mice were euthanized at day 10 after tumor injection for the LLC model and day 5–9 for the B16 model, and the lungs were isolated after perfusion with PBS via the left ventricle. Visible lung metastases were counted in the left lobe. The diameters of metastatic nodules in the lung lobe image were measured using ImageJ software. […]
Cells for flow cytometric analysis were prepared as follows: bone marrow cells were flushed from femurs, followed by incubation with ACK buffer to remove red blood cells. […] After blocking Fc receptors through incubation with an anti-mouse CD16/32 antibody (clone 2.4G2, dilution 1:100, Cat BE0307), cells were stained with fluorescence-labeled anti-mouse monoclonal antibodies. […] Flow cytometry data were obtained using a Gallios flow cytometer (Beckman Coulter) and analyzed with FlowJo software (version 10; FlowJo, LLC). […]

Sequence of p53-MDM2 interaction (Q00987 whole entry): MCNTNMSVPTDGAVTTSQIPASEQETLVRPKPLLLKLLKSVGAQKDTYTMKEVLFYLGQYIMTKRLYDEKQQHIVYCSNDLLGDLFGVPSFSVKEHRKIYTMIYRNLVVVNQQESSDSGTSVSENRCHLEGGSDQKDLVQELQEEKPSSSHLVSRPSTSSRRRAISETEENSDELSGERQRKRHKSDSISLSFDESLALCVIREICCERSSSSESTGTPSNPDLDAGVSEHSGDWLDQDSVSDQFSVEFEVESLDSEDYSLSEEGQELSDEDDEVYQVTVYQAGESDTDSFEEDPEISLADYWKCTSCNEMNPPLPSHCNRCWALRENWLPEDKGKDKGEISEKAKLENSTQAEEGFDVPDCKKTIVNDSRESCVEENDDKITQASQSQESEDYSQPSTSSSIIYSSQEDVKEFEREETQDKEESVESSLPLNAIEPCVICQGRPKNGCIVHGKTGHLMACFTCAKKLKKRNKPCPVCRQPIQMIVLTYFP

effect on p53-MDM2 interaction (p53-MDM2 interaction; HTRF): did not affect | IC50 (p53-MDM2 interaction; HTRF titration assay): > 1 µM | binding to C603S FROUNT (C603S FROUNT): No significant binding
Compound: CCN(CC)C(=S)SSC(=S)N(CC)CC [DSF, disulfiram]
in vitro growth (B16 tumor cells): no effect | number of tumor-associated monocytes/macrophages ([1]; day 20 after tumor inoculation): reduced | subcutaneous tumor growth ([1]; oral DSF in diet (0.8 mg DSF/1 g CE-2) from 4 days after inoculation): inhibited
